Structures can show the parent of a compound that is named as a salt. Where two headings read alike, the source gives them in different places. Bounds are passed on as bounds.

The test system of the test is PAM 212 keratinocytes. In words: PAM 212 keratinocyte growth inhibition assay (photobiological activity; Toxicity, Table I). In kind it is cell-based. The conditions noted are these: Mus musculus, PAM212, light or radiation study. The text has this:
Psoriasis, mycosis fungolides, eczema, scleroderma, cancer, and similar proliferative diseases are often characterized by abnormal cell growth regulation. Application of PUVA therapy to correct proliferative disorders on the skin or internally, especially psoriasis, is one clinical expression of photochemotherapy. The use of the assay described in Example 16 is based on the observation that phototherapeutics are extremely potent inhibitors of growth factor binding in mammalian cells including humans and this inhibition arrests the proliferative disorder. This assay was performed in the cell culture laboratory. For a discussion of cell growth assays see, e.g:, J. Laskin et al., Cancer Research, vol. 39, pp. 383-390 (1979) and E. Yurkow and J. Laskin, Cancer Chemotherapy and Pharmacology, vol. 27, pp. 315-319, (1991). Inhibition of cell growth is dependent on dose ol the phototherapeutic and on the quanta of light in the 320-400 nm wavelength (ultraviolet light A). It is also structure-dependent, that is, there is a direct correlation between those specific phototherapeutics currently used that are clinically active and their ability to inhibit the growth of the cells.
Representative examples of the compounds described and claimed herein were tested in this assay for biological activity and found to be potent inhibitors of cell growth. Inhibition of cell growth was rapid, dependent on concentration, and required light activation. […] A description of this assay follows.
The photobiological activity was assayed using a keratinocyte cell line grown in a monolayer culture. In this assay, PAM 212 keratinocytes were grown in Dulbecco's Modified Eagle's medium supplemented with 10% newborn calf serum in a 5% carbon dioxide incubator. Cells were inoculated into 6-well Falcon plastic culture dishes at 25,000 cells per well. After 24 hours, the medium was charged to fresh growth medium supplemented with increasing concentrations of the test compounds or the control medium. Controls and test concentrations were analyzed in triplicate.
These plates were then incubated in a 37° C. carbon dioxide incubator. […] The incident light on the culture plates was 2.4 mW/cm^2 as measured with an International Light UV radiometer, Model IL 442A. […]
After completion of the irradiation phase, the cell culture medium was drained, the cells refed with fresh growth medium and then re-incubated in the carbon dioxide incubator to allow for cell growth. After 4-5 days of growth the culture plates were removed from the incubator and the cell culture medium was drained. The cells were detached from the plates with trypsin and counted in a Coulter Counter. For control cells or for cells treated with test compounds, cell growth was determined as a percentage of control. […] This value is shown in Table I for a variety of phototherapeutics.

The mark [1] stands for this setting: with UVA (320-400 nm) 1.28 J/square centimeter after 30 minutes incubation, 4-5 days of growth, read-out: Photo-toxicity (IC50 values), concentration at which photoactivated test compound inhibited growth by 50%.
[2] abbreviates: dark (no UVA light), read-out: Dark-toxicity (IC50 values).

As for `Cc1cc(=O)oc2c(C)c(O)c([N+](=O)[O-])cc12` [Example 1, 6-Nitro-4,8-dimethyl-7-hydroxycoumarin], the IC50 under setting [1] was > 300 µM.

Regarding `C=CCOc1c([N+](=O)[O-])cc2c(C)cc(=O)oc2c1C` [Example 2, 6-Nitro-4,8-dimethyl-7-allyloxycoumarin], the IC50 runs as follows: under setting [2], > 100 µM; under setting [1], 5 µM.

As for `C=CCOc1c(N)cc2c(C)cc(=O)oc2c1C` [Example 3, 6-Amino-4.8-dimethyl-7-allyloxycoumarin], the IC50 under setting [2] is > 100 µM and the IC50 under setting [1] came to 240 µM.

Consider `Cc1cc(=O)oc2c(C)c3c(cc12)C(CI)CO3` (stereo not shown) [Example 5, 4,8-Dimethyl-4'-iodomethyl-4',5'-dihydropsoralen], for which the IC50 was > 100 µM under setting [2] and 0.1 µM under setting [1].

Consider `Cc1c(Br)c(=O)oc2c(C)c3c(cc12)C(CI)CO3` (stereo not shown) [Example 6, 3-Bromo-4,8-dimethyl-4'-iodomethyl-4',5'-dihydropsoralen], for which the IC50 under setting [1] was in the range of 0.2 to 0.5 µM.

As to `Cc1cc(=O)oc2c(C)c3c(cc12)C(C[n+]1ccccc1)CO3` (stereo not shown) [Example 9, 4,8-Dimethyl-4'-pyridiniummethyl-4',5'-dihydropsoralen Iodide Salt], the IC50 under setting [1] turned out to be 0.5 µM.

For the compound `Cc1c(Br)c(=O)oc2c(C)c3c(cc12)C(C[n+]1ccccc1)CO3` (stereo not shown) [Example 12, 3-Bromo-4,8-dimethyl-4'-pyridiniummethyl-4',5'-dihydropsoralen Iodide Salt], the IC50 is, setting by setting: under setting [2], 70 µM; under setting [1], > 30 µM.

In the case of `Cc1cc(=O)oc2c(C)c3c(cc12)C(CC#N)CO3` (stereo not shown) [Example 15, 4,8-Dimethyl-4'-cyanomethyl-4',5'-dihydropsoralen], the IC50 under setting [2] is > 100 µM and the IC50 under setting [1] came to 3 µM.

Values taken from patent US6177424A, “4'-Substituted-4',5'-dihydropsoralens and therapeutical uses thereof” (priority 1999, dated 2001).
